Reference: US20150119410A1, “BIOMARKERS OF RESPONSE TO NAE INHIBITORS” (MILLENNIUM PHARMACEUTICALS, INC., priority 2011, published 2015)

Experiments:
Experiment in all cases: Cell line panel 1 viability screen
Assay type in all cases: cell-based
LK-2 = settings: Homo sapiens; LK-2 (lung); 2 μM MLN4924, 72 hours; DMSO control about 1
Protocol: (§1) To support clinical development and identify potential biomarkers of tumor sensitivity or resistance, two large cancer cell line panels (Panel 1, N=653 (McDermott et al. (2007) PNAS 104:19936-19941); Panel 2, N=240 (O'Day et al. (2010) Fourth AACR International Conference on Molecular Diagnostics in Cancer Therapeutic Development)) were treated with MLN4924 and cell viability data (IC50, EC50, and POC—Percentage of Control) were generated.
(§2) Panel 1 (McDermott et al., supra). The cell lines were exposed to three MLN4924 concentrations (20 nM, 200 nM, and 2 μM) for 72 hours. Viability, i.e., cell number, was quantified by measuring fluorescence of a cell-permeant nucleic acid stain. Mean of triplicate values for each sample were taken and compared to DMSO control to calculate percentage of control. In the results, control or no activity value is given a value of about 1, sensitivity is indicated by a value less than 1, with 0 as death of the entire cell population and resistance indicated by a value greater than 1. A continuum of viability values was obtained for each concentration, so some values were selected as cut-offs for final determination of sensitivity or resistance. For example, median POC values of less than the median value of all POC's recorded in the panel (<0.34) indicated sensitivity, values of 0.34 to 0.75 indicated borderline sensitivity, values greater than the 3rd quartile of all POC's in the panel (>0.75) insensitivity or resistance. […] Final judgment of cell line as sensitive, insensitive or resistant was determined by its viability at 2 μM.

NCl-H520 = NCl-H520 (lung NSCLC); 2 μM MLN4924, 72 hours; DMSO control about 1
Protocol: as §1, §2

AN3CA = AN3CA (Uterus)
Protocol: as §1, §2

KP-4 = KP-4 (pancreas)
Protocol: as §1, §2

SW 1116 = settings: Homo sapiens; SW 1116 (intestine); 2 μM MLN4924, 72 hours; DMSO control about 1
Protocol: as §1, §2

KU-19-19 = KU-19-19 (urinary_tract)
Protocol: as §1, §2

SN12C = SN12C (kidney)
Protocol: as §1, §2

CaR-1 = CaR-1 (large_intestine)
Protocol: as §1, §2

S-117 = S-117 (soft_tissue)
Protocol: as §1, §2

KYSE-180 = KYSE-180 (oesophagus)
Protocol: as §1, §2

SW626 = settings: Homo sapiens; SW626 (ovary); 2 μM MLN4924, 72 hours; DMSO control about 1
Protocol: as §1, §2

MIA-PaCa-2 = MIA-PaCa-2 (pancreas)
Protocol: as §1, §2

FADU = FADU (upper aerodigestive tract)
Protocol: as §1, §2

AsPC-1 = AsPC-1 (Pancreas)
Protocol: as §1, §2

8505C = 8505C (thyroid)
Protocol: as §1, §2

MKN1 = MKN1 (Stomach)
Protocol: as §1, §2

HT29 = system: HT29
Protocol: as §1, §2

PANC-08-13 = PANC-08-13 (pancreas)
Protocol: as §1, §2

NCl-H1703 = NCl-H1703 (lung NSCLC); 2 μM MLN4924, 72 hours; DMSO control about 1
Protocol: as §1, §2

NCl-H1581 = NCl-H1581 (lung NSCLC); 2 μM MLN4924, 72 hours; DMSO control about 1
Protocol: as §1, §2

LS-174T = LS-174T (large_intestine)
Protocol: as §1, §2

SW 1463 = system: SW 1463
Protocol: as §1, §2

CAL-33 = CAL-33 (upper aerodigestive tract)
Protocol: as §1, §2

[1] = Homo sapiens, 2 μM MLN4924, 72 hours, DMSO control about 1

With `NS(=O)(=O)OC[C@@H]1C[C@@H](n2ccc3c(N[C@H]4CCc5ccccc54)ncnc32)C[C@@H]1O` [MLN4924, ((1S,2S,4R)-4-{4-[(1S)-2,3-dihydro-1H-inden-1-ylamino]-7H-pyrrolo[2,3-d]pyrimidin-7-yl}-2-hydroxycyclopentyl)methyl sulphamate] the viability at 2 µM (LK-2) was 28.9%, the viability at 2 µM (NCl-H520) was 55.8% and the Phenotype (AN3CA; FBXW7 mutant) was “sensitive (median POC values of less than the median value of all POC's recorded in the panel (<0.34) indicated sensitivity)”. For the same compound, the viability at 2 µM (AN3CA; Homo sapiens, AN3-CA, 2 μM MLN4924, 72 hours, DMSO control about 1) was 19.4%, the viability at 2 µM (KP-4; [1]) was 5.18% and the Phenotype (KP-4; SMAD4 mutant) was “sensitive (median POC values of less than the median value of all POC's recorded in the panel (<0.34) indicated sensitivity)”. For the same compound, the viability at 2 µM (SW 1116) was 116%, the viability at 2 µM (KU-19-19; [1]) was 5.8% and the Phenotype (KU-19-19; KDM6A mutant) was “sensitive (median POC values of less than the median value of all POC's recorded in the panel (<0.34) indicated sensitivity)”. For the same compound, the viability at 2 µM (SN12C; [1]) was 33.6%, the Phenotype (SN12C; NF2 mutant) was “sensitive (median POC values of less than the median value of all POC's recorded in the panel (<0.34) indicated sensitivity)” and the Phenotype (CaR-1; NF2 mutant) was “sensitive (median POC values of less than the median value of all POC's recorded in the panel (<0.34) indicated sensitivity)”. The viability at 2 µM (CaR-1; [1]) was 32.4%, the viability at 2 µM (S-117; [1]) was 64.1% and the Phenotype (S-117; NF2 mutant) was “resistant (values greater than the 3rd quartile of all POC's in the panel (>0.75) insensitivity or resistance)”. For the same compound, the viability at 2 µM (KYSE-180; [1]) was 21.5%, the Phenotype (KYSE-180; KDM6A mutant) was “sensitive (median POC values of less than the median value of all POC's recorded in the panel (<0.34) indicated sensitivity)” and the viability at 2 µM (SW626) was 55.4%. The viability at 2 µM (MIA-PaCa-2; [1]) was 11.5%, the Phenotype (MIA-PaCa-2; KDM6A mutant) was “sensitive (median POC values of less than the median value of all POC's recorded in the panel (<0.34) indicated sensitivity)” and the Phenotype (FADU; SMAD4 mutant) was “sensitive (median POC values of less than the median value of all POC's recorded in the panel (<0.34) indicated sensitivity)”. For the same compound, the viability at 2 µM (FADU; [1]) was 7.3%, the Phenotype (AsPC-1; FBXW7 mutant) was “resistant (values greater than the 3rd quartile of all POC's in the panel (>0.75) insensitivity or resistance)” and the viability at 2 µM (AsPC-1; Homo sapiens, ASPC1, 2 μM MLN4924, 72 hours, DMSO control about 1) was 98.9%. For the same compound, the Phenotype (8505C; NF2 mutant) was “sensitive (median POC values of less than the median value of all POC's recorded in the panel (<0.34) indicated sensitivity)”, the viability at 2 µM (8505C; [1]) was 14.1% and the viability at 2 µM (MKN1; Homo sapiens, MKN-1, 2 μM MLN4924, 72 hours, DMSO control about 1) was 46.3%. For the same compound, the Phenotype (MKN1; FBXW7 mutant) was “insensitive (values of 0.34 to 0.75 indicated borderline sensitivity)”, the Phenotype (HT29; HT-29 (large_intestine), SMAD4 mutant) was “insensitive (values of 0.34 to 0.75 indicated borderline sensitivity)” and the viability at 2 µM (HT29; Homo sapiens, HT29 / HT-29 (intestine), 2 μM MLN4924, 72 hours, DMSO control about 1) was 43.8%. For the same compound, the viability at 2 µM (PANC-08-13; [1]) was 77.7%, the Phenotype (PANC-08-13; SMAD4 mutant) was “resistant (values greater than the 3rd quartile of all POC's in the panel (>0.75) insensitivity or resistance)” and the viability at 2 µM (NCl-H1703) was 11%. For the same compound, the viability at 2 µM (NCl-H1581) was 73.7%, the viability at 2 µM (LS-174T; Homo sapiens, LS174T, 2 μM MLN4924, 72 hours, DMSO control about 1) was 32.6% and the Phenotype (LS-174T; KDM6A mutant) was “sensitive (median POC values of less than the median value of all POC's recorded in the panel (<0.34) indicated sensitivity)”. The viability at 2 µM (SW 1463; Homo sapiens, SW 1463 / SW1463 (intestine), 2 μM MLN4924, 72 hours, DMSO control about 1) was 89.6%, the Phenotype (SW 1463; SW1463 (Intestine), FBXW7 mutant) was “resistant (values greater than the 3rd quartile of all POC's in the panel (>0.75) insensitivity or resistance)” and the Phenotype (CAL-33; SMAD4 mutant) was “sensitive (median POC values of less than the median value of all POC's recorded in the panel (<0.34) indicated sensitivity)”. The viability at 2 µM (CAL-33; [1]) was 14.4%.
